The results in this text go back to patent publication US20250179031A1, “PROTEASOME ENHANCERS AND USES THEREOF” (Board of Trustees of Michigan State University, priority 2022, published 2025).

Molecules are shown by their SMILES.

What all share (type): biochemical
Experiment [1] deals with T1, human 20S proteasome, caspase-like (Casp-L) site.
T1 construct: purchased Boston Biochem, Inc. (Cambridge, MA)
The experiment can be described thus: Fluorogenic peptide degradation 20S proteasome activity assay, Z-LLE-AMC (Casp-L activity). The conditions noted are these: Z-LLE-AMC substrate. The method, then: (§1) Activity assays were carried out in a 100 μL reaction volume. Different concentrations (40-1.25 μM) of test compounds (1 μL) were added to a black flat/clear bottom 96-well plate containing 2 nM of human constitutive 20S proteasome ([…]), in 50 mM Tris-HCl at pH 7.8, 100 mM NaCl and allowed to incubate for 15 min at 37° C. Fluorogenic substrates (5 μL) were then added and the enzymatic activity measured at 37° C. on a SpectraMax M5e spectrometer by measuring the change in fluorescence unit per minute for 1 hour at 380-460 nm. The fluorescence units for the vehicle control were set at a 100%, and the ratio of drug-treated sample set to that of vehicle control was used to calculate the fold change in enzymatic activity. The fluorogenic substrates used were one of the following: Suc-LLVY-AMC (CT-L activity, 20 μM), Z-LLE-AMC (Casp-L activity, 20 μM), Boc-LRR-AMC (Trp-L activity, 40 μM) or a combination of the three substrates each at 6.67 μM. Results were analysed and plotted using GraphPad Prism 7.
(§2) Screening of this library of dihydroquinazolines was performed in two stages. In the first stage, each compound was screened at three concentrations (3, 10 and 30 μM) to select lead agents. Secondly, lead agents were further analyzed using full concentration responses (6-point titration ranging from 1.25 μM-40 μM) for each of the three proteolytic activities of the 20S proteasome and a combination thereof. The proteolytic activity of the 20S proteasome can be monitored in vitro by measuring the cleavage of fluorogenic peptide substrates for the different catalytic sites as an increase in 7-amino-4-methycoumarin (AMC) fluorescence overtime. A combination of chymotrypsin-like (CT-L, Suc-LLVY-AMC), tryptic-like (T-L, Boc-LRR-AMC) and caspase-like (Casp-L, Z-LLE-AMC) peptide substrates were used in equal amounts to screen compounds for overall 20S activity.
(§3) After analyzing the results in Table 1, three of the most promising analogues were selected for further studies into their 20S activity. Compounds 10, 2 and 18 were selected to be carried forward based on their fold increase and the highest Max-Fold activities. […] These compounds were then tested to obtain a full concentration—response (FIG. 1) of their activities towards the 20S proteasome using each of the three substrates for the three catalytic sites individually and the combination of the three substrates. This was done to ensure that each of the selected compounds activate the 20S proteasome at all three catalytic sites, which is critical for effective IDP degradation, as these proteins are likely to contain multiple cleavage sites for each.
(§4) Using the data in FIG. 1, the concentration at which 20S activity was doubled (AC200) was calculated for each compound using each substrate and the combination of the three substrates (Table 2).

The subject of experiment [2] is T2, human 20S proteasome (α-synuclein substrate).
T2 construct: purchased Boston Biochem, Inc. (Cambridge, MA)
The experiment can be described thus: In vitro purified α-synuclein degradation assay (silver stain). Conditions: pure human α-synuclein, 4 h at 37° C., silver stain quantified. The method, then: Representative silver stain of these alpha-synuclein digestions and quantification of three trials. 20S proteasome subunits were used as a loading control in the quantification (right). […] Error bars denote standard deviation. Ordinary one-way ANOVA statistical analysis was used to determine statistical significance (ns=not significant, *p<0.05, **p<0.01, […], and ****p<0.00001).
In vitro purified α-synuclein degradation assay. Digestion of α-synuclein was carried out in a 50 μL reaction volume made of 50 mM Tris and 100 mM NaCl at pH 7.8; 0.5 μM purified α-synuclein and 6.7 nM purified human 20S proteasome. Briefly, 20S proteasome was diluted to 7.58 nM in the reaction buffer. Test compounds or vehicle (1 μL of 50× stock or DMSO) were added to 44 μL of 7.58 nM 20S and incubated at 37° C. for 20 min. 5 μL of 5 μM α-synuclein substrate was then added to the reaction mixture and incubated at 37° C. for 4 hours. The reactions were quenched with concentrated sodium dodecyl sulfate (SDS) loading buffer. After boiling for 10 min, samples were resolved on a 4-20% Tris-glycine SDS-PAGE gel. The gels were then stained using a Pierce Silver Stain Kit (Thermo Scientific, Rockford IL) and the provided procedure. Silver stained gels were then quantified using ImageJ. […]

Experiment [3] concerns T3, human 20S proteasome, tryptic-like (T-L) site.
T3 construct: purchased Boston Biochem, Inc. (Cambridge, MA)
The experiment can be described thus: Fluorogenic peptide degradation 20S proteasome activity assay, Boc-LRR-AMC (T-L activity). The conditions noted are these: Boc-LRR-AMC substrate. The method, then: as §1, §2, §3, §4

The test system of experiment [4] is T4, human 20S proteasome, chymotrypsin-like (CT-L) site.
T4 construct: purchased Boston Biochem, Inc. (Cambridge, MA)
The experiment can be described thus: Fluorogenic peptide degradation 20S proteasome activity assay, Suc-LLVY-AMC (CT-L activity). The conditions noted are these: Suc-LLVY-AMC substrate. How it is done: as §1, §2, §3, §4

The subject of a further experiment is T5, human 20S proteasome.
T5 construct: purchased Boston Biochem, Inc. (Cambridge, MA)
The experiment can be described thus: Fluorogenic peptide degradation 20S proteasome activity assay, combination of CT-L, T-L and Casp-L substrates. The method, then:
as §1, §2
Pure human 20S proteasome was pre-treated with 3, 10 or 30 μM of one of the analogues or DMSO (vehicle control) for 15 min at 37° C. To each sample was then added a mixture of the three substrates (13.3 μM each). The release of AMC was monitored as fluorescence overtime for 1 h and the resulting 20S activity changes were determined by comparing to the untreated 20S and calculating the fold-increase in activity for each analogue at a given concentration (Table 1, 30 μM).
as §3, §4

The mark [5] stands for this setting: combination of the three substrates, 1.25-40 μM titration.

With `COc1ccc2c(c1)N=C(c1ccccc1)N(C1CCN(Cc3ccccc3)CC1)C2c1ccccc1` (centres unmarked) [Compound 18], in experiment [1], the “AC200, Casp-L” value was 2.8 µM and the “Max Fold, Casp-L” value is on record as 10.6 fold. For the same molecule, in experiment [2], the “20S-mediated degradation of α-synuclein (in words)” value is given as “effectively enhanced the rate of degradation of α-synuclein by the 20S in vitro in a concentration dependent manner”. For the same molecule, in experiment [3], the “AC200, T-L” value was determined as 1.7 µM and the “Max Fold, T-L” value is recorded as 8.7 fold. For the same molecule, in experiment [4], the “AC200, CT-L” value was 10.5 µM and the “Max Fold, CT-L” value turned out to be 3.8 fold. Besides, in the experiment on human 20S proteasome (30 μM compound, mixture of the three substrates, 15 min pre-treatment at 37° C., 1 h read), the “Fold increase over vehicle (30 μM), enhancement of 20S activity” value was determined as 7 fold. Further, the “concentration at which 20S activity was doubled in the combination (in words)” value with human 20S proteasome (combination of the three substrates) is recorded as “low μM concentrations”. In addition, in the experiment on human 20S proteasome (setting [5]), the “AC200 (concentration at which 20S activity was doubled), Combo” value was 1.3 µM and the “Max Fold, Combo” value was 5.5 fold.
